{
  "source": "paper PMC5503158",
  "about": "(Cancer research, 2017)",
  "molecular_target": "Bax (Homo sapiens, UniProt Q07812)",
  "sequence (Q07812 whole entry)": "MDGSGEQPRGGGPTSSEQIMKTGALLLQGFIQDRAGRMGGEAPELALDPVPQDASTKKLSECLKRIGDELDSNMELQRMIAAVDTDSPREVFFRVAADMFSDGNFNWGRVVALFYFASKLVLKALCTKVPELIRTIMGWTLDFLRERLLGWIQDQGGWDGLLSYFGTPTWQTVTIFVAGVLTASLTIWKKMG",
  "experiment": "competition fluorescence polarization assay with fluorescent Bak BH3 peptide",
  "type": "binding",
  "data": [
    {"smiles": "NCCOc1ccccc1C=C1c2ccccc2-c2ccc([N+](=O)[O-])cc21", "note": "[CYD-2-11]", "values": [
      {"measurement": "Ki", "value": "34.1 ± 8.54", "unit": "nM"}
    ]}
  ]
}
